Laboratory results from patent US7655395B2, “Isolation and use of ryanodine receptors” (E.I. du Pont de Nemours and Company, priority 2002, dated 2010).

Experiments:
[1] = target: T1, recombinant Drosophila melanogaster ryanodine receptors (expressed in Sf9 cells) (Drosophila melanogaster, UniProt Q24498); type: cell-based; details: for Calcium Release Threshold (nM) D. melanogaster: receptor expressed in Sf9 cells; for Calcium Release (D. melanogaster): Table 6, result in words, receptor transiently or stably expressed in Sf9 cells
T1 construct: expressed in transfected cells
Experimental: The Spodoptera frugiperda cell line Sf9 used for transfection studies, was maintained in Sf-900 II SFM medium (Invitrogen Life Technologies™, Carlsbad, Calif.) in T-75 flasks incubated at 27° C. It is understood that those skilled in the art might choose alternative cell types such as the Spodoptera frugiperda cell line Sf21 or the Drosophila cell line S2. For the purpose of general handling and propagation, cells were suspended through scraping or agitation and a volume of cell suspension was added to each well of a poly-L-lysine coated 96-well, glass-bottom plate so as to provide 70-80% confluence. Cells were maintained in an incubator at 27° C. until testing.
SF900-II media was used to bring the final volume in the dish to 2 ml and the cells were incubated at 27 degrees C. for 21 h. Following the incubation the media was aspirated from the dish and replaced with 1 ml of SF900-II media pre-warmed to 27 degrees C.
The transient transfection was carried out following an InsectSelect BSD System manual (Invitrogen Life Technologies™, Carlsbad, Calif.). […] The transfection was accomplished by adding the transfection solution drop-wise to the dish and incubating 4 h at room temperature with gentle rocking. […]
(§1) Several drops of a suspension of recombinant Spodoptera frugiperda cell line, Sf9, transiently expressing insect ryanodine receptors were placed on a poly-L-lysine-coated coverslip and allowed to attach. Cells were then rinsed in physiological saline having the following composition (mM): NaCl 130; KCl 5.4; MgCl2 1.2; CaCl2 1.0; NaHCO3 4.2; NaH2P04 7.3; Glucose 10; Sucrose 63; MES 20; pH 6.3. Cells were then bathed in physiological saline containing the calcium sensitive fluoroprobe, Fura-2 AM (2 μM), and Pluronic F127 (0.002%) for 30 min. Cells were rinsed in standard physiological saline for at least 15 min prior to testing. Testing was conducted in standard physiological saline, as the cell lines are devoid of functional voltage-gated calcium channels.
Cell-attached coverslips were placed in a sealed chamber with physiological saline continuously perfused across the cells using a peristaltic pump. Test compounds solubilized in physiological saline were applied by switching the perfusate source.
(§2) For studies involving the stable recombinant Spodoptera frugiperda cell line, Sf9, (other cell lines could also be used such as Sf21, S2, etc) expressing an insect ryanodine receptor from Drosophila melanogaster, or Heliothis virescens (alternatively receptors from other species such as Myzus persicae, Peregrinus maidis, Aphis gossypii, etc) were grown in T75 (or other appropriate sized) flasks in supplemented Grace's insect medium. Cells were maintained in an incubator at 22° C. until testing. Cells were suspension-loaded with the calcium sensitive fluoroprobe, Fura-2 AM (1-2 μM) and Pluronic F127 (0.002%) in culture medium for 30 minutes under agitation. Cells were then centrifuged and the pellet resuspended in physiological saline having the following composition (mM): NaCl 130; KCl 5.4; MgCl2 1.2; CaCl2 1.0; NaHCO3 4.2; NaH2P04 7.3; Glucose 10; Sucrose 63; MES 20; pH 6.3 at approximately 150,000-200,000 cells per well (96-well plate). After a 30 minute equilibration period the cell plate was tested using a Molecular Devices' FlexStation™ system with dual wavelength excitation (340 and 380 nm) and fluorescence emission measured at 510 nm. Test and control samples were added using integrated fluidics and the intracellular calcium monitored over a 2 minute period.

[2] = target: native cockroach ryanodine receptors (roach femoral muscle membranes) (Periplaneta americana, UniProt A0ABQ8T696); test: Radioligand displacement ([3H]-GN analog Cpd 1) on roach femoral muscle membranes; type: binding; details: for IC50: displacement of [3H]-Cpd 1, roach muscle membranes, 60 min at 32° C., read-out: Displacement IC50 (nM) P. americana; for Radioligand Displacement (P. americana): Table 6, result in words
Experimental: Binding to Roach Femoral Muscle Membranes:
Assays were carried out in triplicate.

[3] = system: native cockroach ryanodine receptors (in embryonic neuronal cells); test: Calcium release assay, calcium imaging of embryonic cockroach neuronal cells (Fluo-4); type: cell-based, Periplaneta americana; details: for Calcium Release (P. americana): Table 6, result in words
Excerpt: Embryonic neuronal cultures of the American cockroach Periplaneta americana were established, with minor modifications, following the method of Beadle and Lees (1988) (in Cell Culture Approaches to Invertebrate Neuroscience, Academic Press, New York, pp 123-127). Briefly, 26-27-day old oothecae were collected, surface-sterilized and cut open along a line one-third of the distance below the dorsal midline. The heads were removed and placed in Schneider's Drosophila medium (Invitrogen Life Technologies™, Carlsbad, Calif.). Using fine forceps 40 brains were individually removed and placed in a small glass vial containing 700 μl of ‘5+4’ medium (‘5+4’ medium contained 5 parts Schneider's Drosophila medium plus 4 parts roach Basal Medium Eagle, with Earle's salts (BME, Sigma™, St. Louis, Mo.). Roach BME (with Earle's salts) contained 5 parts Hepes (1 M), 1 part penicillin/streptomycin and 44 parts BME (with Earle's salts). ‘5+4’ medium was made fresh and sterile filtered (0.2 μm filter) just prior to use). The brains were dissociated by sequential trituration as follows: 1) brains were passed through a standard Pasteur pipette 10 times; 2) the resulting tissue suspension was passed an additional 5 times through a Pasteur pipet with tip flamed to about half of its original diameter; 3) a final 5 passes were performed using a Pasteur pipet with tip flamed to slightly less than half of its original diameter. A repeat pipettor was used to dispense a 5 μl volume of the resulting suspension into the center of each well of a 96-well, glass-bottom plate previously coated with poly-L-lysine (0.2 mg/ml solution). Cells attached to the bottom of the wells during a 50 min incubation at 27-29° C. 150 ul of a 1:1 mixture of Leibovitz's L-15 medium and Yunker's modified Grace's medium was added, and plates were maintained in a humid incubator at 27-29° C. until use. After cells were allowed to attach wells were filled with a 1:1 mixture of Leibovitz's L-15 medium and Yunker's modified Grace's medium (Leibovitz's L-15 and Grace's medium were obtained from Invitrogen Life Technologies™, Carlsbad, Calif. and Yunker's modified Grace's medium was made with Grace's medium modified by addition of 5 mg L-methionine, 10 mg L-alanine, 182 mg MgCl2.6H20, 1 g Albumin Fraction V, 7 ml Fetal bovine serum, 10 ml Chick embryo extract, 2 ml Penicillin/Streptomycin, and 2 mg 20-hydroxyecdysone (prepared in ethanol prior to addition) to a final volume of 100 ml and sterile filtered (0.2 μm filter)). Cells were maintained in a high humidity incubator at 29° C. until testing.
The calcium imaging and acquisition protocols using roach neuronal cells is as follows:
Cells were rinsed in standard physiological saline having the following composition (mM): NaCl 190; CaCl2 9; KCl 3.1; probenicid 1; Tris buffer 10; pH 7.2. Cells were then bathed in standard physiological saline containing the calcium sensitive fluoroprobe Fluo-4 AM (2 μM) and Pluronic F127 (0.002%) for 45 min. Cells were then rinsed in standard physiological saline for at least 15 min prior to testing. Within the hour prior to testing, standard physiological saline was replaced with standard physiological saline containing the organic cation channel blocker pimozide (10 μM), to inhibit influx of external calcium through voltage-gated calcium channels. The 96-well plate was placed on a Prior™ motorized stage mounted onto a Nikon Diaphot microscope and imaged using a 20× Fluor objective (NA 0.75). Individual wells from the 96-well plate were sequentially excited with light at 495 nm, and the emitted fluorescence at 530 nm was detected using a Hamamatsu ORCA ER digital camera with 2 pixel binning (image size 672×512 pixels).
Acquisition control, image processing and image analysis were conducted using Universal Imaging Corporation's MetaMorph™ imaging software (Universal Imaging, West Chester, Pa.). A series of 3 “control” images were acquired for each well. […]

[4] = system: control cells without DNA / wild-type Sf9 cells; test: Calcium response in control Sf9 cells (without DNA, lipid only, non-transfected, wild type); type: cell-based, Spodoptera frugiperda; details: Compound 16 10 and 100 nM
Excerpt: as §1
Imaging studies were conducted using a Nikon Diaphot microscope with a 40× oil immersion objective (NA 1.3) Image acquisition and processing was performed using the MetaFluor™ imaging system from Universal Imaging Corporation (West Chester, Pa.) Calcium calibration was carried out using the Grynkiewicz equation with a dissociation constant (Kd) of 145 nM for Fura-2 (Grynkiewicz et al., 1985). Cell-attached coverslips were placed in a sealed chamber with physiological saline continuously perfused across the cells using a peristaltic pump. Test compounds solubilized in physiological saline were applied by switching the perfusate source.
as §2

Row | Compound | IC50 [2] [nM] | Calcium Release Threshold (nM) P. americana [3] [nM] | other results
1 | [3H]c1cc(C)c(NC(=O)c2cc(C(F)(F)F)nn2-c2ccccc2F)c(C(=O)NC(C)C)c1 [Cpd 1, 1-(2-Fluorophenyl)-N-[2-methyl-4-tritio-6-[[(1-methylethyl)amino]carbonyl]phenyl]-3-(trifluoromethyl)-1H-pyrazole-5-carboxamide] | < 300 | – | Calcium Release Threshold (nM) D. melanogaster [1]: <300 nM
2 | N.N.N.N.N.N.N.N.N.N.N.N.N.N.[Cl-].[Cl-].[Cl-].[Cl-].[Cl-].[Cl-].[O-2].[O-2].[Ru+3].[Ru+3].[Ru+4] [Ruthenium Red, reference compound] | – | – | Calcium Release (D. melanogaster) [1]: Antagonist; Calcium Release (P. americana) [3]: Inactive; Radioligand Displacement (P. americana) [2]: Displacer
3 | Cc1cc(Cl)cc(C(=O)NC(C)C)c1NC(=O)c1cc(Br)nn1-c1ncccc1Cl [Cpd 13] | < 300 | – | –
4 | Cc1cccc(C(=O)NC(C)C)c1NC(=O)c1cc(C(F)(F)F)nn1-c1ccccc1Cl [Cpd 2] | < 300 | <300 | Calcium Release Threshold (nM) D. melanogaster [1]: <300 nM
5 | Cc1cc(Br)cc(C(=O)NCC(C)C)c1NC(=O)c1cc(C(F)(F)F)nn1-c1ccccc1Cl [Cpd 3] | < 300 | – | –
6 | Cc1cccc(C(=O)NC(C)C)c1NC(=O)c1cc(Br)nn1-c1ncccc1Cl [Cpd 7] | < 300 | <300 | –
7 | COc1cccc2c1C(=O)c1c(O)c3c(c(O)c1C2=O)C[C@@](O)(C(=O)CO)C[C@@H]3O[C@H]1C[C@H](N)[C@H](O)[C@H](C)O1.Cl [Doxorubicin, reference compound] | – | – | Calcium Release (P. americana) [3]: Inactive
8 | CCNC(=O)c1cc(Br)cc(Br)c1NC(=O)c1cc(C(F)(F)F)nn1-c1ncccc1Cl [Cpd 18] | < 300 | – | –
9 | Cc1cc(Cl)cc(C(=O)NC(C)C)c1NC(=O)c1cc(C(F)(F)F)nn1-c1ncccc1Cl [Cpd 10] | < 300 | <300 | –
10 | CNC(=O)c1cc(Cl)cc(C)c1NC(=O)c1cc(C(F)(F)F)nn1-c1ncccc1Cl [Cpd 11] | < 300 | <300 | Calcium Release Threshold (nM) D. melanogaster [1]: <300 nM
11 | CNC(=O)c1cccc(C)c1NC(=O)c1cc(C(F)(F)F)nn1-c1ncccc1Cl [Cpd 6] | < 300 | <300 | –
12 | CNC(=O)c1cc(Cl)cc(C)c1NC(=O)c1cc(Cl)nn1-c1ncccc1Cl [Cpd 17] | < 300 | <300 | –
13 | Cc1cccc(C(=O)NC(C)C)c1NC(=O)c1cc(Cl)nn1-c1ncccc1Cl [Cpd 8] | < 300 | <300 | –
14 | Cc1cc(Cl)cc(C(=O)NC(C)C)c1NC(=O)c1cc(Cl)nn1-c1ncccc1Cl [Cpd 16] | < 300 | <300 | calcium response ([1]; Compound 16 10 and 100 nM, Sf9 transiently expressing D. melanogaster ryanodine receptor, 96 hr post-transfection, FIG. 3): calcium responses elicited; Calcium Release Threshold (nM) D. melanogaster [1]: <300 nM; calcium response in control cells without DNA [4]: No significant calcium responses
15 | Cc1cc(Br)cc(C(=O)NC(C)C)c1NC(=O)c1cc(Br)nn1-c1ncccc1Cl [Cpd 12] | < 300 | <300 | –
16 | CNC(=O)c1cc(Br)cc(C)c1NC(=O)c1cc(C(F)(F)F)nn1-c1ncccc1Cl [Cpd 15] | < 300 | <300 | –
17 | Cc1cc(Br)cc(C(=O)NC(C)C)c1NC(=O)c1cc(C(F)(F)F)nn1-c1ncccc1Cl [Cpd 9] | < 300 | <300 | –
18 | Ryanodine [reference compound] | – | – | Calcium Release (D. melanogaster) [1]: Antagonist; Calcium Release (P. americana) [3]: Antagonist; Radioligand Displacement (P. americana) [2]: Inactive
19 | Oc1c(Br)cc2[nH]c3cnccc3c2c1Br [Bromoeudistomin D, reference compound] | – | – | Calcium Release (P. americana) [3]: Agonist
